Values quoted from earlier work in patent publication US12091391B2, “Reagents and methods for bioorthogonal labeling of biomolecules in living cells” (Oregon State University, priority 2015, dated 2024).

For “cyclopropane-fused trans cyclooctene [sTCO]”, the half-life in vivo is listed as 0.67 days.
